Data published in patent publication US20110039721A1, “METHOD FOR PREDICTION ABOUT CARCINOGENICITY OF SUBSTANCE IN RODENT” (Chemicals Evaluation and Research Institute, priority 2007, published 2011).

Columns and labels:
[1] = classification of the substance (M+/M−); cited from earlier work
[2] = test system: mRNA expressed from the genes (A) to (D) in rat liver; assay: Behavior of genes (mRNA expression level, oligo-DNA microarray) in rat liver after 28-day oral administration; format: in vivo
Procedure, shortened: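 Groups of four male F344 SPF rats aged 5 weeks are gavaged once a day for 28 days with test chemical in solvent or with solvent alone at equal volume. Total RNA comes from liver taken on day 28. Fold change of 1.5 or 1/1.5 versus control, directionally consistent, defines significance.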

liver = details: in vivo; cited from earlier work
rodent = details: classification of the substance (C+/C−); cited from earlier work
[3] = gene group (A), Unigene No. Rn.167075
[4] = gene group (C), Unigene No. Rn.120914

O=C1CCCCCN1 [TS074, Caprolactam]
+: Behavior of gene caused by administration of chemical substance, Gene No. 6182 ([2]; gene group (A), Unigene No. Rn.5834) | Behavior of gene caused by administration of chemical substance, Gene No. 2045 ([2]; gene group (B), Unigene No. Rn.19329) | Behavior of gene caused by administration of chemical substance, Gene No. 725 ([2]; gene group (C), Unigene No. Rn.108075) | Behavior of gene caused by administration of chemical substance, Gene No. 4973 ([2]; gene group (C), Unigene No. Rn.118529) | Behavior of gene caused by administration of chemical substance, Gene No. 4095 ([2]; gene group (C), Unigene No. Rn.119024) | Behavior of gene caused by administration of chemical substance, Gene No. 1741 ([2]; gene group (C), Unigene No. Rn.1647) | Behavior of gene caused by administration of chemical substance, Gene No. 3776 ([2]; gene group (C), Unigene No. Rn.43232) | Behavior of gene caused by administration of chemical substance, Gene No. 3929 ([2]; gene group (C), Unigene No. Rn.4620) | Behavior of gene caused by administration of chemical substance, Gene No. 5634 ([2]; gene group (C), Unigene No. Rn.9862)
−: Behavior of gene caused by administration of chemical substance, Gene No. 4846 ([2]; gene group (A), Unigene No. Rn.144554) | Behavior of gene caused by administration of chemical substance, Gene No. 2026 [2, 3] | Behavior of gene caused by administration of chemical substance, Gene No. 4218 [2, 3] | Behavior of gene caused by administration of chemical substance, Gene No. 5600 ([2]; gene group (A), Unigene No. Rn.9836) | Behavior of gene caused by administration of chemical substance, Gene No. 1494 ([2]; gene group (B), Unigene No. Rn.1430) | Behavior of gene caused by administration of chemical substance, Gene No. 2203 ([2]; gene group (B), Unigene No. Rn.21240) | Behavior of gene caused by administration of chemical substance, Gene No. 533 ([2]; gene group (C), Unigene No. Rn.106184) | Behavior of gene caused by administration of chemical substance, Gene No. 1163 ([2]; gene group (C), Unigene No. Rn.11766) | Behavior of gene caused by administration of chemical substance, Gene No. 1334 [2, 4] | Behavior of gene caused by administration of chemical substance, Gene No. 6620 [2, 4] | Behavior of gene caused by administration of chemical substance, Gene No. 6303 ([2]; gene group (C), Unigene No. Rn.123063) | Behavior of gene caused by administration of chemical substance, Gene No. 5878 ([2]; gene group (C), Unigene No. Rn.143213) | Behavior of gene caused by administration of chemical substance, Gene No. 1131 ([2]; gene group (C), Unigene No. Rn.144946) | Behavior of gene caused by administration of chemical substance, Gene No. 1562 ([2]; gene group (C), Unigene No. Rn.14744) | Behavior of gene caused by administration of chemical substance, Gene No. 893 ([2]; gene group (C), Unigene No. Rn.164817) | Behavior of gene caused by administration of chemical substance, Gene No. 6026 ([2]; gene group (C), Unigene No. Rn.167685) | Behavior of gene caused by administration of chemical substance, Gene No. 154 ([2]; gene group (C), Unigene No. Rn.185941) | Behavior of gene caused by administration of chemical substance, Gene No. 1993 ([2]; gene group (C), Unigene No. Rn.18728) | Behavior of gene caused by administration of chemical substance, Gene No. 813 ([2]; gene group (C), Unigene No. Rn.201760) | Behavior of gene caused by administration of chemical substance, Gene No. 2494 ([2]; gene group (C), Unigene No. Rn.23969) | Behavior of gene caused by administration of chemical substance, Gene No. 2546 ([2]; gene group (C), Unigene No. Rn.24561) | Behavior of gene caused by administration of chemical substance, Gene No. 1119 ([2]; gene group (C), Unigene No. Rn.9757) | Behavior of gene caused by administration of chemical substance, Gene No. 6742 ([2]; gene group (C), Unigene No. Rn.9779) | Behavior of gene caused by administration of chemical substance, Gene No. 5726 ([2]; gene group (D), Unigene No. Rn.9939)
C−: Carcinogenicity (rodent)
M−: Mutagenicity by Ames test [1]
Cr−: Liver carcinogenicity (liver)
